Counter-ions that a name gives are not always drawn.

Results on eleven compounds are retold here after patent US20090018136A1, “METHODS AND COMPOSITIONS FOR THE TREATMENT OF VASCULAR DISEASE” (priority 2005, published 2009).

The conditions of series [1]: for hygroscopicity / water adsorbed (hygroscopicity): dihydrochloride; for water adsorbed (hygroscopicity): content to which the form adsorbs water.
The subject of series [2] is hypertensive patients. Nature of the series: Study 2: dose-response of oral BH4 on blood pressure and heart rate, after 2-week vitamin C run-in. Type of series: in vivo, human. As to the method:
Prior studies have used parenteral infusion of BH4 or a single oral dose; thus it was not known whether long-term oral BH4 over a period of days to weeks would result in a sustained improvement in endothelial dysfunction. […] Two studies were conducted to investigate the duration of action of oral BH4 and the response of hypertensive subjects to different doses of BH4. […] Patients were continued on their current anti-hypertensive therapy which remained unchanged. […] BH4 powder was obtained from Schircks Laboratories (Jona, Switzerland). BH4 when administered with vitamin C was compounded with vitamin C at a ratio of 1 mg of vitamin C/1 mg BH4 into appropriate sized capsules. Subjects were advised to keep the pills in a freezer or refrigerator. For both study 1 and study 2, the primary end point after statistical analysis was a reduction of systolic, mean and diastolic BP during BH4 therapy. Secondary end points included improvement of endothelial function as FMD. Linear mixed effects models for repeated measures data were used to analyze change in BP from baseline to end of treatment period and differences in change between 100 mg and 200 mg dose groups. A quadratic term for week was included in the model to account for non-linear trends over the treatment period. Dose, week and week squared were the main effect terms in the model; dose by week and dose by week squared were the interaction terms in the model. Significant interaction terms indicate a difference in the pattern of change between the two dose groups. FMD data was analyzed using the two-tailed student t-test. […] Of the 20 subjects who qualified for participation, 4 were excluded during the run-in phase because of inability to return for follow-up appointments. There were 6 male subjects, mean age 59.5±8.3 years. Eight subjects received 200 mg b.i.d (twice daily) of oral BH4 and 8 received 100 mg b.i.d. of oral BH4. […] Because BH4 was compounded with vitamin C in a 1:1 ratio, all subjects received vitamin C, at their assigned BH4 dose, twice a day during the first 2-week period. After this 2-week run-in period, subjects received BH4 only at their assigned dosage for the next 4 weeks. Weekly heart rate and BP measurements were made during the run-in period and treatment period. Mean blood pressure was calculated as: (SBP+2×DBP)/3. BH4 was then stopped and follow-up was performed at 1 and 4 weeks after discontinuation where BP and heart rate measurements were made. Routine chemistries and LFT's were drawn prior to initiation of medication, at the end of BH4 therapy and one month after discontinuation of BH4.

Series [3] has as its system beagles. The conditions noted are these: dog, in vivo. As to the method: This study evaluated the cardiovascular effects of high doses of 6R-BH4 in combination with the PDE5 inhibitor sildenafil citrate in vivo. Eight male research nonnaïve and naïve purebred beagles were dosed in a double Latin square crossover design as described in the following table. All animals were dosed by oral gavage. Test articles were administered at a dose volume of 5 mL/kg (for a total volume of 10 mL/kg for the combination dose); control animals were dosed at a dose volume of 10 mL/kg. 6R-BH4 (sapropterin dihydrochloride) provided as 300 mg tablets (100 mg active 6R-BH4/tablet) stored at room temperature with desiccant.
At initiation of treatment, the animals were approximately 7 to 10 months old, and their body weights prior to dosing ranged from 7.8 to 12.0 kg.
At least 2 weeks prior to initiation of treatment, animals were fasted overnight, anesthetized, and an electrocardiogram (ECG) and blood pressure transmitter were implanted into the abdomen and sutured to the abdominal wall. The blood pressure catheter was placed in an artery and advanced to the abdominal aorta. Animals were checked twice daily (a.m. and p.m.) for mortality, abnormalities, and signs of pain and distress. Additional findings were recorded as observed.
Detailed observations were taken three times during the predose phase (including the day before dosing) and on Days 3 and 10 of the dosing phase. For each dosing day, ECG and pressure measurements were recorded for at least 90 minutes prior to dosing, continuously for at least 8 hours after dosing, and then for one period of at least 15 minutes in duration each hour through at least 24 hours postdose. Blood pressure measurements included systolic, diastolic, and mean arterial pressures and pulse pressure (systolic-diastolic). […]
Quantitative evaluation of ECG measurements, including RR interval, QT, and rate-corrected QT (QTc, using Fridericia's method), were done.
Positive inotropic effects (+dP/dtmax) and heart rate were calculated from a left ventricular pressure signal predose and approximately 2, 4, 8, 12, and 24 hours postdose. […]

In series [4] the test system is sickle cell transgenic (PS) mice. The settings on record: administration to sickle cell transgenic (PS) mice; cited from earlier work.

For `C[C@H](O)[C@H](O)[C@H]1CNc2nc(N)[nH]c(=O)c2N1.Cl.Cl` [form E, (6R)-L-erythro-tetrahydrobiopterin dihydrochloride], the hygroscopicity entry in series [1] is reported as “non-hygroscopic”. `O=C1O[C@H]([C@@H](O)CO)C(O)=C1O` [vitamin C, ascorbic acid, reference compound]: the “diastolic arterial BP” value in series [2] (Study 2, 16 subjects, after 2 weeks of vitamin C run-in, 84±13 before, p=ns) was determined as 86±11 mmHg. The “mean arterial BP” value in series [2] (Study 2, 16 subjects, after 2 weeks of vitamin C run-in, 106±10 before, p=ns) is 106±12 mmHg. Besides, the “systolic arterial BP” value in series [2] (Study 2, 16 subjects, after 2 weeks of vitamin C run-in, 152±11 before, p=ns) came out at 148±19 mmHg. For the same compound, the “change in heart rate or BP during the run-in phase” value in series [2] (Study 2, vitamin C twice a day for 2 weeks, either group) is on record as “no significant change”. In the case of `C[C@H](O)[C@H](O)[C@H]1CNc2nc(N)[nH]c(=O)c2N1.Cl.Cl` [form B, (6R)-L-erythro-tetrahydrobiopterin dihydrochloride], the hygroscopicity entry in series [1] is listed as “slightly hygroscopic”. `CCCc1nn(C)c2c(=O)[nH]c(-c3cc(S(=O)(=O)N4CCN(C)CC4)ccc3OCC)nc12` [sildenafil citrate]: in series [3], the Arterial pulse pressure entry is “significantly increased” and the Heart rate entry is listed as “significantly increased”.

In the case of `C[C@H](O)[C@H](O)[C@H]1CNc2nc(N)[nH]c(=O)c2N1.Cl.Cl` [form J, (6R)-L-erythro-tetrahydrobiopterin dihydrochloride], the hygroscopicity result in series [1] is on record as “slightly hygroscopic”. For the compound `C[C@H](O)[C@H](O)[C@H]1CNc2nc(N)[nH]c(=O)c2N1.Cl.Cl` [form C, (6R)-L-erythro-tetrahydrobiopterin dihydrochloride], in series [1], the hygroscopicity result is listed as “slightly hygroscopic”. As for `C[C@H](O)[C@H](O)[C@H]1CNc2nc(N)[nH]c(=O)c2N1.Cl.Cl` [form F, (6R)-L-erythro-tetrahydrobiopterin dihydrochloride], in series [1], the “water adsorbed (hygroscopicity)” value is recorded as “about 3 percent by weight” and the hygroscopicity entry is on record as “slightly hygroscopic”.

Regarding `C[C@H](O)[C@H](O)[C@H]1CNc2nc(N)[nH]c(=O)c2N1.Cl.Cl` [form D, (6R)-L-erythro-tetrahydrobiopterin dihydrochloride], in series [1], the hygroscopicity entry was “slightly hygroscopic”. Regarding `C[C@H](O)[C@H](O)[C@H]1CNc2nc(N)[nH]c(=O)c2N1.Cl.Cl` [form A, (6R)-L-erythro-tetrahydrobiopterin dihydrochloride], in series [1], the “water adsorbed (hygroscopicity)” value is listed as “about 3 percent by weight” and the hygroscopicity entry was “slightly hygroscopic”. Also, the “phase equilibration test of suspensions” value in series [1] (tetrahydrofuran five days or tertiary-butyl methyl ether 18 hours, under nitrogen at room temperature, then filtration and air-drying) is “unchanged”. For `C[C@H](O)C(=O)C1=Nc2c(nc(N)[nH]c2=O)NC1` [sepiapterin], the blood cell adhesion result in series [4] is on record as “attenuation”. Regarding `C[C@H](O)[C@H](O)[C@H]1CNc2nc(N)[nH]c(=O)c2N1.Cl.Cl` [form K, (6R)-L-erythro-tetrahydrobiopterin dihydrochloride], in series [1], the “water adsorbed (hygroscopicity)” value is recorded as “about 2.0 percent by weight” and the hygroscopicity result is “slightly hygroscopic”.
